{"source": "paper PMC4838552", "about": "(ChemMedChem, 2016)", "key": {"[1]": {"experiment": "Caco-2 permeability study", "format": "in vitro ADME", "settings": "human"}, "[2]": {"target": "ssDNA binding to RPA70AB in the RPA70NAB construct (Homo sapiens, UniProt P27694)", "experiment": "Fluorescence-based DNA binding assay", "settings": "Kd for ssDNA binding to RPA70AB in RPA70NAB, absence vs presence of compound"}, "RPA70N": {"target": "RPA70N (Homo sapiens, UniProt P27694)", "experiment": "FPA competition assay", "format": "binding", "settings": "for LE (ligand efficiency): LE = 1.4*pKd/HAC, using the FPA data"}, "Protein binding study": {"experiment": "Protein binding study", "format": "in vitro ADME"}}}
{"smiles": "Cc1ccc(C(=O)Nc2cc(Br)ccc2C(=O)O)cc1S(=O)(=O)Nc1ccc(Cl)c(Cl)c1", "note": "[Compound 20c, 4-Bromo-2-(3-(N-(3,4-dichlorophenyl)sulfamoyl)-4-methylbenzamido)benzoic acid]", "values": [{"measurement": "Papp A→B", "setting": "[1]", "result": 29.2, "unit": "×10⁻⁶ cm/s"}, {"measurement": "effect on ssDNA binding to RPA", "setting": "[2]", "result": "does not affect ssDNA binding to RPA"}, {"measurement": "LE (ligand efficiency)", "setting": "RPA70N", "result": 0.27}, {"measurement": "fraction unbound", "setting": "Protein binding study", "result": 0.002}]}
{"smiles": "Cc1ccc(C(=O)Nc2ccccc2C(=O)O)cc1S(=O)(=O)Nc1ccc(Br)cc1", "note": "[Compound 11, 2-(3-(N-(4-bromophenyl)sulfamoyl)-4-methylbenzamido)benzoic acid]", "values": [{"measurement": "LE (ligand efficiency)", "setting": "RPA70N", "result": 0.21}]}
{"smiles": "Cc1ccc(C(=O)Nc2ccccc2C(=O)O)cc1S(=O)(=O)Nc1cccc(Cl)c1", "note": "[Compound 18, 2-(3-(N-(3-chlorophenyl)sulfamoyl)-4-methylbenzamido)benzoic acid]", "values": [{"measurement": "LE (ligand efficiency)", "setting": "RPA70N", "result": 0.21}, {"measurement": "potency relative to 11 (fold less potent)", "setting": "RPA70N; compared with compound 11", "result": "equipotent"}]}
